Patent publication US10160762B2, “6-alkyl dihydropyrazolopyrimidinone compounds as PDE2 inhibitors” (Merck Sharp & Dohme Corp., priority 2015, dated 2018)
Like-named read-outs stand apart in the source and are kept apart here.

Biological target: T1, human PDE2A1 (Homo sapiens, UniProt O00408)
T1 construct: GST; purchased BPS Bioscience (San Diego, Calif.) 60020; host or cells: insect cells
Test: IMAP FP PDE assay, human PDE2A1
Assay type: biochemical
Method in brief: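 FP (IMAP) read after 60 min room-temperature reaction of insect-cell GST-human PDE2A1 with 50 nM FAM-cAMP plus 1000 nM cGMP (pH 7.2 Tris, Mg2+, DTT). Compounds titrated 3-fold over ten points. Apparent Ki derived assuming KM of 10,000 nM; enzyme at 20% substrate turnover.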

[1] = Lab A, read-out: Human PDE2 Ki (nM) Lab A
[2] = Lab B, read-out: Human PDE2 Ki (nM) Lab B

T1 sequence (O00408 1-920 isoform O00408-2): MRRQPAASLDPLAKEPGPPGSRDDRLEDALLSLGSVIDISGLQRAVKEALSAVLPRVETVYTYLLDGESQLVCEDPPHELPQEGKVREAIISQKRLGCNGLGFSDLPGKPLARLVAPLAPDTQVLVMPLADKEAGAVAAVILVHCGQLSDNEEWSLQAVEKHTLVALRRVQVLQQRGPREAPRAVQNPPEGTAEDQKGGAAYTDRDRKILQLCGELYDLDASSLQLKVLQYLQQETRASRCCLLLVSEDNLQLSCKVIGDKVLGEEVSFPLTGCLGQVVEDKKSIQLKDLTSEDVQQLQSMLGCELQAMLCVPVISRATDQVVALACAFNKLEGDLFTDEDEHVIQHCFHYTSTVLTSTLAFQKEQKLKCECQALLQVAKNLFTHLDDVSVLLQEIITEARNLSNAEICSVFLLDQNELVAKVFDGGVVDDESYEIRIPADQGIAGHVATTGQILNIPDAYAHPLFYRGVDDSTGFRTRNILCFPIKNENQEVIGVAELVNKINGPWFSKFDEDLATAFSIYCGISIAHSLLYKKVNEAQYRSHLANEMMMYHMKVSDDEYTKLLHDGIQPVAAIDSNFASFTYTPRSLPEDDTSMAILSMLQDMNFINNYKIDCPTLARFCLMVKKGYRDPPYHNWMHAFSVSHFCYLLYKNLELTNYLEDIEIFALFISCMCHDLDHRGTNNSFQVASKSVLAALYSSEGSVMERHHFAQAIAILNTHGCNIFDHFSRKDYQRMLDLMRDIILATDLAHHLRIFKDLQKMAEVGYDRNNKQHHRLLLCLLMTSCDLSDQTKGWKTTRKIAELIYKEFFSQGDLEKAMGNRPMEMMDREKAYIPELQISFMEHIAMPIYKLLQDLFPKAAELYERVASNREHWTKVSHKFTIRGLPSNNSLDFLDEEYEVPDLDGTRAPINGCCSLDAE

Row | Compound | Ki [1] [nM] | Ki [2] [nM]
1 | Cc1nc2c(c(CO)nn2Cc2ccc(C(F)(F)F)cc2)c(=O)[nH]1 [Example 8, 3-(Hydroxymethyl)-6-methyl-1-[4-(trifluoromethyl)benzyl]-1,5-dihydro-4H-pyrazolo[3,4-d]pyrimidin-4-one] | 100 | 105
2 | Cc1nc2c(c(CCl)nn2C(c2ccc(C(F)(F)F)cc2)C2CC2)c(=O)[nH]1 (centres unmarked) [Example 232, 3-(chloromethyl)-1-(cyclopropyl(4-(trifluoromethyl)phenyl)methyl)-6-methyl-1H-pyrazolo[3,4-d]pyrimidin-4(5H)-one] | 0.27 | 0.7
3 | CCC(c1ccc(C(F)(F)F)cc1)n1nc(CO)c2c(=O)[nH]c(C)nc21 (single isomer, unassigned) [Example 132, (R)- or (S)-3-(Hydroxymethyl)-6-methyl-1-(1-(4-(trifluoro-methyl)phenyl)propyl)-1H-pyrazolo[3,4-d]pyrimidin-4(5H)-one] |  | 1.1
4 | Cc1nc2c(c(CF)nn2C(c2ccc(C(F)(F)F)cc2)C(F)(F)F)c(=O)[nH]1 (centres unmarked) [Example 201, 3-(Fluoromethyl)-6-methyl-1-(2,2,2-trifluoro-1-(4-(trifluoromethyl)phenyl)-ethyl)-1H-pyrazolo[3,4-d]pyrimidin-4(5H)-one] |  | 2.6
5 | Cc1nc2c(c(CF)nn2C(C)c2ccc(S(F)(F)(F)(F)F)cc2)c(=O)[nH]1 (single isomer, unassigned) [Example 200] |  | 2
6 | Cc1nc2c(c(CF)nn2C(C)c2ccc(C(C)(C)C)cc2)c(=O)[nH]1 (single isomer, unassigned) [Example 215, (S)- or (R)-1-(1-(4-tert-Butylphenyl)ethyl)-3-(fluoromethyl)-6-methyl-1H-pyrazolo[3,4-d]pyrimidin-4(5H)-one] |  | 0.48
7 | Cc1nc2c(c(CF)nn2C2(c3ccc(C(F)(F)F)cc3)CCC2)c(=O)[nH]1 [Example 202, 3-(Fluoromethyl)-6-methyl-1-(1-(4-(trifluoromethyl)phenyl)cyclobutyl)-1H-pyrazolo[3,4-d]pyrimidin-4(5H)-one] |  | 2.9
8 | Cc1nn(C(C)c2ccc(C(F)(F)F)cc2)c2nc(Cc3ccccc3O)[nH]c(=O)c12 (centres unmarked) [Example 31, 6-(2-Hydroxybenzyl)-3-methyl-1-(1-(4-(trifluoromethyl)phenyl)ethyl)-1H-pyrazolo[3,4-d]pyrimidin-4(5H)-one] | 43 | 
9 | Cc1ccc(C(C)n2nc(CF)c3c(=O)[nH]c(C)nc32)cc1 (centres unmarked) [Example 203, 3-(Fluoromethyl)-6-methyl-1-(1-p-tolylethyl)-1H-pyrazolo[3,4-d]pyrimidin-4(5H)-one] | 8.3 | 17
10 | COc1ccc(C(=O)c2nc3c(c(C(F)F)nn3C(C)c3ccc(C(F)(F)F)cc3)c(=O)[nH]2)cc1OC (centres unmarked) [Example 198, 3-(Difluoromethyl)-6-(3,4-dimethoxybenzoyl)-1-(1-(4-(trifluoromethyl)phenyl)ethyl)-1H-pyrazolo[3,4-d]pyrimidin-4(5H)-one] |  | 21
11 | Cc1nc2c(c(C(O)C(F)(F)F)nn2C(C)c2ccc(C(F)(F)F)cc2)c(=O)[nH]1 (centres unmarked) [Example 327, 6-Methyl-3-(2,2,2-trifluoro-1-hydroxyethyl)-1-{1-[4-(trifluoromethyl)phenyl]ethyl}-1,5-dihydro-4H-pyrazolo[3,4-d]pyrimidin-4-one] | 92 | 
12 | Cc1nc2c(c(C)nn2C(C)c2ccc(C(F)(F)F)cc2)c(=O)[nH]1 (single isomer, unassigned) [Example 36] | 428 | 
13 | Cc1nc2c(c(C(F)F)nn2C(C)c2ccc(OC(F)F)cc2)c(=O)[nH]1 (single isomer, unassigned) [Example 182, (S)- or (R)-1-(1-(4-(Difluoromethoxy)phenyl)ethyl)-3-(difluoromethyl)-6-methyl-1H-pyrazolo[3,4-d]pyrimidin-4(5H)-one] |  | 0.84
14 | Cc1nc2c(c(CO)nn2C(C)c2ccc(C(F)(F)F)c(F)c2)c(=O)[nH]1 (single isomer, unassigned) [Example 12, (R)- or (S)-1-(1-(3-Fluoro-4-(trifluoromethyl)phenyl)ethyl)-3-(hydroxymethyl)-6-methyl-1H-pyrazolo[3,4-d]pyrimidin-4(5H)-one] |  | 205
